# In US20190134005A1 (BioMarin Pharmaceutical Inc., priority 2016, published 2019):
# Target: T1, human CGT (Homo sapiens, UniProt Q16880)
# T1 sequence (Q16880 21-541): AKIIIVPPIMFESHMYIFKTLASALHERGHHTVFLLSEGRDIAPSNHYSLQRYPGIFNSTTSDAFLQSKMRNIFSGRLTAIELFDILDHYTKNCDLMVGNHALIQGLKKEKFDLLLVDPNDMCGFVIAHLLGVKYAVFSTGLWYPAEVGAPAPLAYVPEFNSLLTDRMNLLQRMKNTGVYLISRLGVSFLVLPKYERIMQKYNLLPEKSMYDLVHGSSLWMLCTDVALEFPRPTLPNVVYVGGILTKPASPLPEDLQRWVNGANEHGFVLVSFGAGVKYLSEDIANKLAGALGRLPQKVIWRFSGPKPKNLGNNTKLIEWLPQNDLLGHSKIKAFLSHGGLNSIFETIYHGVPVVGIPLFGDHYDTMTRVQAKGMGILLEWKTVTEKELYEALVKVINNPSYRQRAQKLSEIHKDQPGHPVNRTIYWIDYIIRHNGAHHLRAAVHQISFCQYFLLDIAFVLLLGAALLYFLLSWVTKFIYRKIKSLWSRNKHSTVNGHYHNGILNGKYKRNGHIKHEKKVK
# Assay: Assay 1: CGT Enzymatic Assay (RapidFire/MS/MS, 0.01% Tween 80)
# Assay type: biochemical
# Conditions: Table 1, Compounds of Formula (I) and Formula (II); CGT enzymatic assay, C6-NBD-dihydro-galactosylceramide readout; read-out: IC50
row,Compound,IC50
1,"Cc1ccc(N2C(=O)N(c3ccc(C#N)cc3)C(O)(c3cccc(OC(F)(F)F)c3)C23COC3)cc1 (centres unmarked) [Example 307, 4-(8-hydroxy-6-oxo-5-(p-tolyl)-8-(3-(trifluoromethoxy)phenyl)-2-oxa-5,7-diazaspiro[3.4]octan-7-yl)benzonitrile]",< 1000 nM
2,"Cc1ccc(N2C(=O)N(c3ccc(C#N)cc3)C(O)(c3cccc(C#N)c3)C23COC3)cc1 (centres unmarked) [Example 308, 3-(7-(4-cyanophenyl)-8-hydroxy-6-oxo-5-(p-tolyl)-2-oxa-5,7-diazaspiro[3.4]octan-8-yl)benzonitrile]",< 1000 nM
3,"CC1(C)N(c2ccc(C#N)cc2)C(=O)N(c2ccc(Cl)cc2)C1(O)c1cccc(C#N)c1 (centres unmarked) [Example 309, 3-(3-(4-chlorophenyl)-1-(4-cyanophenyl)-4-hydroxy-5,5-dimethyl-2-oxoimidazolidin-4-yl)benzonitrile]",< 1000 nM
4,"O=C1N(c2ccc(Cl)cc2)C2(COC2)C(O)(c2sccc2Br)N1c1ccc(Cl)cc1 (centres unmarked) [Example 310, 8-(3-bromothiophen-2-yl)-5,7-bis(4-chlorophenyl)-8-hydroxy-2-oxa-5,7-diazaspiro[3.4]octan-6-one]",< 1000 nM
5,"Cc1ccc(N2C(=O)N(c3ccc(Cl)cc3)C(O)(c3cccc(OC(F)(F)F)c3)C23COC3)cc1 (centres unmarked) [Example 311, 7-(4-chlorophenyl)-8-hydroxy-5-(p-tolyl)-8-(3-(trifluoromethoxy)phenyl)-2-oxa-5,7-diazaspiro[3.4]octan-6-one]",< 1000 nM
6,"Cc1ccc(N2C(=O)N(c3ccc(C#N)cc3)C(C)(C)C2(O)c2cccc(OC(F)(F)F)c2)cc1 (centres unmarked) [Example 312, 4-(4-hydroxy-5,5-dimethyl-2-oxo-3-(p-tolyl)-4-(3-(trifluoromethoxy)phenyl)imidazolidin-1-yl)benzonitrile]",< 1000 nM
7,"Cc1ccc(N2C(=O)N(c3ccc(C#N)cc3)C(O)(c3cccc(C#N)c3)C2(C)C)cc1 (centres unmarked) [Example 313, 3-(3-(4-cyanophenyl)-4-hydroxy-5,5-dimethyl-2-oxo-1-(p-tolyl)imidazolidin-4-yl)benzonitrile]",< 1000 nM
8,"Cc1ccc(N2C(=O)N(c3ccc(C#N)cc3)C(O)(c3cccc(OC(F)(F)F)c3)C2(C)C)cc1 (centres unmarked) [Example 314, 4-(5-hydroxy-4,4-dimethyl-2-oxo-3-(p-tolyl)-5-(3-(trifluoromethoxy)phenyl)imidazolidin-1-yl)benzonitrile]",< 1000 nM
9,"Cc1ccc(N2C(=O)N(c3ccc(Cl)cc3)C(O)(c3cccc(OC(F)(F)F)c3)C23CCC3)cc1 (centres unmarked) [Example 315, 7-(4-chlorophenyl)-8-hydroxy-5-(p-tolyl)-8-(3-(trifluoromethoxy)phenyl)-5,7-diazaspiro[3.4]octan-6-one]",< 1000 nM
10,"Cc1ccc(N2C(=O)N(c3ccc(Cl)cc3)C(O)(c3cccc(C#N)c3)C23CCC3)cc1 (centres unmarked) [Example 316, 3-(7-(4-chlorophenyl)-8-hydroxy-6-oxo-5-(p-tolyl)-5,7-diazaspiro[3.4]octan-8-yl)benzonitrile]",< 1000 nM
11,"Cc1ccc(N2C(=O)N(c3ccc(Cl)cc3)C(O)(c3cccc(C#N)c3)C2(C)C)cc1 (centres unmarked) [Example 317, 3-(3-(4-chlorophenyl)-4-hydroxy-5,5-dimethyl-2-oxo-1-(p-tolyl)imidazolidin-4-yl)benzonitrile]",< 1000 nM
12,"Cc1ccc(N2C(=O)N(c3ccc(Cl)cc3)C(O)(c3cccc(OC(F)(F)F)c3)C2(C)C)cc1 (centres unmarked) [Example 318, 1-(4-chlorophenyl)-5-hydroxy-4,4-dimethyl-3-(p-tolyl)-5-(3-(trifluoromethoxy)phenyl)imidazolidin-2-one]",< 1000 nM
13,"CC[C@@]1(C)N(c2ccc(C#N)cc2)C(=O)N(c2ccc(C#N)cc2)C1(O)c1cccc(OC(F)(F)F)c1 (stereo partly drawn) [Example 319-1, 4,4′-((4R)-4-ethyl-5-hydroxy-4-methyl-2-oxo-5-(3-(trifluoromethoxy)phenyl)imidazolidine-1,3-diyl)dibenzonitrile]",< 1000 nM
14,"CC[C@]1(C)N(c2ccc(C#N)cc2)C(=O)N(c2ccc(C#N)cc2)C1(O)c1cccc(OC(F)(F)F)c1 (stereo partly drawn) [Example 319-2, 4′-((4S)-4-ethyl-5-hydroxy-4-methyl-2-oxo-5-(3-(trifluoromethoxy)phenyl)imidazolidine-1,3-diyl)dibenzonitrile]",< 1000 nM
15,"CCC[C@]1(C)N(c2ccc(C#N)cc2)C(=O)N(c2ccc(C#N)cc2)C1(O)c1cccc(OC(F)(F)F)c1 (stereo partly drawn) [Example 320-2, 4,4′-((5S)-4-hydroxy-5-methyl-2-oxo-5-propyl-4-(3-(trifluoromethoxy)phenyl)imidazolidine-1,3-diyl)dibenzonitrile]",< 1000 nM
16,"CCC1(CC)N(c2ccc(Cl)cc2)C(=O)N(c2ccc(Cl)cc2)C1(O)c1cccc(C#N)c1 (centres unmarked) [Example 321, 3-(1,3-bis(4-chlorophenyl)-5,5-diethyl-4-hydroxy-2-oxoimidazolidin-4-yl)benzonitrile]",< 1000 nM
17,"CC1(C)N(c2ccc(C#N)cc2)C(=O)N(c2ccc(Cl)cc2)C1(O)c1cccc(OC(F)(F)F)c1 (centres unmarked) [Example 322, 4-(3-(4-chlorophenyl)-4-hydroxy-5,5-dimethyl-2-oxo-4-(3-(trifluoromethoxy)phenyl)imidazolidin-1-yl)benzonitrile]",< 1000 nM
18,"CC1(C)N(c2ccc(Cl)cc2)C(=O)N(c2ccc(C#N)cc2)C1(O)c1cccc(C#N)c1 (centres unmarked) [Example 323, 3-(1-(4-chlorophenyl)-3-(4-cyanophenyl)-4-hydroxy-5,5-dimethyl-2-oxoimidazolidin-4-yl)benzonitrile]",< 1000 nM
19,"CC1(C)N(c2ccc(Cl)cc2)C(=O)N(c2ccc(Cl)cc2)C1(O)c1cccc(C2CCO2)c1 (centres unmarked) [Example 324-1, 1,3-bis(4-chlorophenyl)-4-hydroxy-5,5-dimethyl-4-(3-(oxetan-2-yl)phenyl)imidazolidin-2-one]",< 1000 nM
20,"CC1(C)N(c2ccc(Cl)cc2)C(=O)N(c2ccc(Cl)cc2)C1(O)c1cccc(C2COC2)c1 (centres unmarked) [Example 324-2, 1,3-bis(4-chlorophenyl)-4-hydroxy-5,5-dimethyl-4-(3-(oxetan-3-yl)phenyl)imidazolidin-2-one]",1000 to 10000 nM
21,"N#Cc1ccc(N2C(=O)N(c3ccc(Br)cc3)C(O)(c3cccc(OC(F)(F)F)c3)C23CCCC3)cc1 (centres unmarked) [Example 325, 4-(3-(4-bromophenyl)-4-hydroxy-2-oxo-4-(3-(trifluoromethoxy)phenyl)-1,3-diazaspiro[4.4]nonan-1-yl)benzonitrile]",< 1000 nM
22,"N#Cc1ccc(N2C(=O)N(c3ccc(C#N)cc3)C(O)(c3cccc(OC(F)(F)F)c3)C23CCCC3)cc1 (centres unmarked) [Example 326, 4,4′-(4-hydroxy-2-oxo-4-(3-(trifluoromethoxy)phenyl)-1,3-diazaspiro[4.4]nonane-1,3-diyl)dibenzonitrile]",< 1000 nM
23,"Cc1ccc(N2C(=O)N(c3ccc(C)cc3)C(O)(c3cccc(OC(F)(F)F)c3)C23CCCC3)cc1 (centres unmarked) [Example 327, 4-hydroxy-1,3-di-p-tolyl-4-(3-(trifluoromethoxy)phenyl)-1,3-diazaspiro[4.4]nonan-2-one]",< 1000 nM

# Same assay, conditions: Table 1, Compounds of Formula (I) and Formula (II); CGT enzymatic assay; read-out: IC50
row,Compound,IC50
1,"N#Cc1cccc(C2(O)N(c3ccc(Cl)cc3)C(=O)N(c3ccc(Cl)cc3)C23CC3)c1 (centres unmarked) [Example 226, 3-(4,6-bis(4-chlorophenyl)-7-hydroxy-5-oxo-4,6-diazaspiro[2.4]heptan-7-yl)benzonitrile]",< 1000 nM
2,"O=C1N(c2ccc(Cl)cc2)C2(CC2)C(O)(c2cccc(O)c2)N1c1ccc(Cl)cc1 (centres unmarked) [Example 227, 4,6-bis(4-chlorophenyl)-7-hydroxy-7-(3-hydroxyphenyl)-4,6-diazaspiro[2.4]heptan-5-one]",1000 to 10000 nM
3,"O=C1N(c2ccc(Cl)cc2)C2(CC2)C(O)(c2cccc(Cl)c2)N1c1ccc(Cl)cc1 (centres unmarked) [Example 228, 7-(3-chlorophenyl)-4,6-bis(4-chlorophenyl)-7-hydroxy-4,6-diazaspiro[24]heptan-5-one]",< 1000 nM
4,"CC1N(c2ccccc2)C(=O)N(c2ccc(Br)cc2)C1(O)c1cccc(OC(F)(F)F)c1 (centres unmarked) [Example 229, 3-(4-bromophenyl)-4-hydroxy-5-methyl-1-phenyl-4-(3-(trifluoromethoxy)phenyl)imidazolidin-2-one]",< 1000 nM
5,"CC1N(c2ccccc2)C(=O)N(c2ccccc2)C1(O)c1cccc(OC(F)(F)F)c1 (centres unmarked) [Example 230, 4-hydroxy-5-methyl-1,3-diphenyl-4-(3-(trifluoromethoxy)phenyl)imidazolidin-2-one]",1000 to 10000 nM
6,"C[C@@H]1N(c2ccccc2)C(=O)N(c2ccccc2)C1(O)c1cccc(OC(F)(F)F)c1 (stereo partly drawn) [Example 230-1, (5S)-4-hydroxy-5-methyl-1,3-diphenyl-4-(3-(trifluoromethoxy)phenyl)imidazolidin-2-one]",1000 to 10000 nM
7,"C[C@H]1N(c2ccccc2)C(=O)N(c2ccccc2)C1(O)c1cccc(OC(F)(F)F)c1 (stereo partly drawn) [Example 230-2, (5R)-4-hydroxy-5-methyl-1,3-diphenyl-4-(3-(trifluoromethoxy)phenyl)imidazolidin-2-one]",1000 to 10000 nM
8,"CC(C)C1(c2cccc(C#N)c2)C(O)N(c2ccc(Cl)cc2)C(=O)N1c1ccc(Cl)cc1 (centres unmarked) [Example 231, 3-(1,3-bis(4-chlorophenyl)-5-hydroxy-4-isopropyl-2-oxoimidazolidin-4-yl)benzonitrile]",1000 to 10000 nM
9,"CC(C)C1(c2cccc(C#N)c2)C(O)N(c2ccc(Br)cc2)C(=O)N1c1ccc(Br)cc1 (centres unmarked) [Example 232, 3-(1,3-bis(4-bromophenyl)-5-hydroxy-4-isopropyl-2-oxoimidazolidin-4-yl)benzonitrile]",1000 to 10000 nM
